Data reported in US9617260B2, “Inhibitors of bruton's tyrosine kinase” (Hoffmann-La Roche Inc., priority 2013, dated 2017).

Molecular target: Bruton's Tyrosine Kinase (BTK), inactivated state (Homo sapiens (Human), UniProt Q06187)
Assay: Bruton's Tyrosine Kinase (BTK) Inhibition TR-FRET (Time Resolved FRET) competition assay
Type: binding
Conditions: competition with Kinase Tracer 178 for BTK-Eu; plates incubated 18-24 h at 14° C.
Protocol: Bruton's Tyrosine Kinase (BTK) Inhibition TR-FRET (Time Resolved FRET) Assay
This BTK competition assay measures compound potency (IC50) for the inactivated state of Bruton's Tyrosine Kinase using FRET (Förster/Fluoresence Resonance Energy Transfer) technology. The BTK-Eu complex was incubated on ice one hour prior to use at a starting concentration of 50 nM BTK-Bioease™: 10 nM Eu-streptavidin (Perkin-Elmer Catalog #AD0062). The assay buffer consisted of 20 mM HEPES (pH 7.15), 0.1 mM DTT, 10 mM MgCl2, 0.5 mg/ml BSA with 3% Kinase Stabilizer (Fremont Biosolutions, Catalog #STB-K02). After 1 h, the reaction mixture from above was diluted 10 fold in assay buffer to make 5 nM BTK: 1 nM Eu-Streptavidin complex (donor fluorophore). 18 μl of a mixture of 0.11 nM BTK-Eu and 0.11 nM Kinase Tracer 178 (Invitrogen, Catalog #PV5593,) with BTK-Eu alone as no negative control, was then dispensed into 384-well flat bottom plates (Greiner, 784076). Compounds to be tested in assay were prepared as 10× concentrations and serial dilution in half-log increments was performed in DMSO so as to generate 10 point curves. To initiate the FRET reaction, compounds prepared as 10× stock in DMSO was added to the plates and the plates were incubated 18-24 h at 14° C.
After the incubation the plates were read on a BMG Pherastar Fluorescent plate reader (or equivalent) and used to measure the emission energy from the europium donor fluorophore (620 nm emission) and the FRET (665 nm emission). The negative control well values were averaged to obtain the mean minimum. The positive “no inhibitor” control wells were averaged to obtain the mean maximum. Percent of maximal FRET was calculated using following equation: % max FRET=100×[(FSRcmpd−FSRmean min)/(FSRmean max−FSRmean min)]
where FSR=FRET Signal ratio. % Max FRET curves were plotted in Activity Base (Excel) and the IC50 (%), hill slope, z′ and % CV were determined The mean IC50 and standard deviation will be derived from duplicate curves (singlet inhibition curves from two independent dilutions) using Microsoft Excel.
Representative compound data for this assay are listed below in Table II.

Bruton's Tyrosine Kinase (BTK), inactivated state, sequence (Q06187 whole entry): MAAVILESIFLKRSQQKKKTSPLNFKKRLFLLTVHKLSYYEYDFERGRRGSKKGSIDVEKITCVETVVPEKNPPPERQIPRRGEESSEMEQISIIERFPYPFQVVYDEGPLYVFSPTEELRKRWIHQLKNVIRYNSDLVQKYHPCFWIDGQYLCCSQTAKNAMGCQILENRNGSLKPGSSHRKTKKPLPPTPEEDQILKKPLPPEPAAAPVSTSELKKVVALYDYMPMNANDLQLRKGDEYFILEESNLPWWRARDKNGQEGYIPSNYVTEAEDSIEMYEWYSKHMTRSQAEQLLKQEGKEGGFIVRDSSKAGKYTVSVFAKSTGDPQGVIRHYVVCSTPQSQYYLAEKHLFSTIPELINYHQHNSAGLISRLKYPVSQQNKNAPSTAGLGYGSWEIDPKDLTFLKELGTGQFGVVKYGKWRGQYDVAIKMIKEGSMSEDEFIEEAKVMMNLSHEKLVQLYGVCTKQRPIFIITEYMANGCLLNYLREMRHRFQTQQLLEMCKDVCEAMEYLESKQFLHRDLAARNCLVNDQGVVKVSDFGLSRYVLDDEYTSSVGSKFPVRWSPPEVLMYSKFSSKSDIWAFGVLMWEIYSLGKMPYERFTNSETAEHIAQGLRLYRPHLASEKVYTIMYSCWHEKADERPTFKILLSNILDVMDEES

Row | Structure (SMILES) | IC50 [nM]
1 | N#CC1(C(=O)Nc2cccc(-c3c[nH]c4ncc(NC(=O)OCc5ccccc5)cc34)c2)CC1 [Compound 21, benzyl N-[3-[3-[(1-cyanocyclopropanecarbonyl)amino]phenyl]-1H-pyrrolo[2,3-b]pyridin-5-yl]carbamate] | 287
2 | C=CC(=O)Nc1cccc(-c2c[nH]c3ncc(NC(=O)OC(C)C)cc23)c1 [Compound 3, propan-2-yl N-[3-[3-(prop-2-enoylamino)phenyl]-1H-pyrrolo[2,3-b]pyridin-5-yl]carbamate] | 0.3
3 | O=C(Nc1cnc2[nH]cc(-c3cccc(NC(=O)C(=O)c4ccccc4)c3)c2c1)OCc1ccccc1 [Compound 13, benzyl N-[3-[3-[(2-oxo-2-phenylacetyl)amino]phenyl]-1H-pyrrolo[2,3-b]pyridin-5-yl]carbamate] | 323
4 | CC(=O)C(=O)N1CC=C(c2c[nH]c3ncc(NC(=O)OCc4cccc(C#N)c4)cc23)CC1 [Compound 29, (3-cyanophenyl)methyl N-[3-[1-(2-oxopropanoyl)-3,6-dihydro-2H-pyridin-4-yl]-1H-pyrrolo[2,3-b]pyridin-5-yl]carbamate] | 700
